Measurements as given in patent US10000476B2, “Pyridone derivative, pharmaceutical containing the same and methods of use thereof” (KAKEN PHARMACEUTICAL CO., LTD., priority 2011, dated 2018).

Columns and labels:
[1] = tested on: auricular oedema induced by TPA in BALB/c mice; assay: Inhibition test of auricular oedema induced by single application of TPA in mouse; type: in vivo; conditions: 1 w/v % solution applied topically to ear 1 hour before TPA, auricle thickness 6 hours after TPA, read-out: Auricular oedema inhibition rate (%)
Experimental: Inhibition Test of Auricular Oedema Induced by Single Application of TPA (12-O-tetradecanoylphorbol-13-acetate) in Mouse (In Vivo Efficacy Test Based on TNF-α-Related Cutaneous Inflammation)
Auricular oedema was induced by applying 54 μmol/L TPA-acetone solution on both the inner and outer sides of the left ear of BALB/c mice (application volume of 54 μmol/L TPA-acetone solution is 10 μL for each side of the left ear (i.e. 1.08 nmol TPA/auricle)). For a non-induced group, acetone was similarly applied instead of the 54 μmol/L TPA-acetone solution. The test substance was dissolved and prepared in a 1 w/v % solution of acetone containing 10 vol % DMSO (topical administration vehicle), then the test solution was applied onto both the inner and outer sides of the left ear of the mice (application volume of this test solution is 10 μL for each side of the left ear) 1 hour before the TPA application. For a control group, the topical administration vehicle was similarly applied instead of the test substance solution. For an etanercept group, 0.2 mL of a 5 mg/mL etanercept solution was intravenously administered (1 mg/mouse) the day before TPA application and 1.5 hours before TPA application. For a human IgG (hIgG) group (etanercept control group), 0.2 mL of a 5 mg/mL hIgG solution was intravenously administered (1 mg/mouse). Auricle thickness was measured under ether anesthesia the day before TPA application and 6 hours after TPA application for evaluation of the auricular oedema inhibition effect of the test substance based on the increase in auricle thickness as an index.
The auricular oedema inhibition rate (%) of the test substance was calculated based on the following formula using (A) the average value of the increase in auricular thickness of the group administered with the test substance, (B) the average value of the increase in auricular thickness of the non-induced group, and (C) the average value of the increase in auricular thickness of the control group. […]

TACE = TACE (Homo sapiens (Human), UniProt P78536); assay: TACE inhibition test (in vitro); type: biochemical; conditions: fluorescent synthetic substrate, 37° C., 1.5 hours
In short: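 Recombinant enzyme (cDNA from THP-1 cells, expressed in mammalian or insect cells) with quenched substrate Nma-Leu-Ala-Gln-Ala-Val-Arg-Ser-Ser-Lys(Dnp)-D-Arg-NH2. Incubated 1.5 h at 37 °C; fluorescence read at ex 355/em 460 nm; IC50 from inhibition rate.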

Chain of TACE (P78536 215-824): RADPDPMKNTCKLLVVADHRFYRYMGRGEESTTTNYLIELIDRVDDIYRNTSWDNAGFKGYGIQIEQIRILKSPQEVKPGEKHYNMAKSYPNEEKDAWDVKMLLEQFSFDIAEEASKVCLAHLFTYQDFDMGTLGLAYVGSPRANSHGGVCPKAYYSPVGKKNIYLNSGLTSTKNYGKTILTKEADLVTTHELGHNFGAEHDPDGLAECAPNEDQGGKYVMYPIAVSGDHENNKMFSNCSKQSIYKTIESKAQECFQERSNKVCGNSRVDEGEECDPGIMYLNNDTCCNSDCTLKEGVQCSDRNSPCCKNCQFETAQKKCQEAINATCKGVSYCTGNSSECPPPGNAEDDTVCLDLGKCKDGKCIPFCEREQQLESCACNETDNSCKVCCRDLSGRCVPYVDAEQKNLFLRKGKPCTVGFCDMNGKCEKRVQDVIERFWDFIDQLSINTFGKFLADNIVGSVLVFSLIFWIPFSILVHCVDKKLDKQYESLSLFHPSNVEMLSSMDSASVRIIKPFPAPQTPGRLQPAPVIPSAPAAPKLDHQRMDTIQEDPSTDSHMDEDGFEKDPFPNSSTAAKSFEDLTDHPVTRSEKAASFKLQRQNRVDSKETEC

Row | Structure (SMILES) | IC50 (TACE) [nM] | inhibition in vivo at 10000 µg/mL [1] [%]
1 | Cc1cccn(CC2(c3ccc(Oc4ccc(Cl)cc4)cc3)NC(=O)NC2=O)c1=O (centres unmarked) [Compound I-130] | – | 44
2 | COc1cccn(CC2(c3ccccc3)NC(=O)NC2=O)c1=O (centres unmarked) [Compound I-143] | 100 to 1000 | –
3 | C=C(C)c1cccn(CC2(c3ccc(OC)cc3)NC(=O)NC2=O)c1=O (centres unmarked) [Compound I-144] | 100 to 1000 | –
4 | O=C1NC(=O)C(Cn2cccc(CO)c2=O)(c2ccc(F)c(F)c2)N1 (centres unmarked) [Compound I-148] | 100 to 1000 | –
5 | O=C1NC(=O)C(Cn2cccc(CO)c2=O)(c2ccc(Cc3ccccc3)cc2)N1 (centres unmarked) [Compound I-151] | 100 to 1000 | –
6 | Cc1cccn(CC2(c3cccc(F)c3F)NC(=O)NC2=O)c1=O (centres unmarked) [Compound I-153] | < 100 | –
7 | Cc1cccn(CC2(c3cc(F)ccc3F)NC(=O)NC2=O)c1=O (centres unmarked) [Compound I-154] | < 100 | –
8 | O=C1NC(=O)C(Cn2ccccc2=O)(c2ccc(F)c(F)c2)N1 (centres unmarked) [Compound I-155] | < 100 | –
9 | O=C1NC(=O)C(Cn2ccccc2=O)(c2ccc(Cc3ccccc3)cc2)N1 (centres unmarked) [Compound I-156] | 100 to 1000 | –
10 | O=C1NC(=O)C(Cn2ccccc2=O)(c2cc(F)c(F)c(F)c2)N1 (centres unmarked) [Compound I-157] | < 100 | –

Second part, led by results:

Row | IC50 (TACE) [nM] | Structure (SMILES) | inhibition in vivo at 10000 µg/mL [1] [%]
11 | < 100 | Cc1cccn(CC2(c3ccc(OC4C=CCCC4)cc3)NC(=O)NC2=O)c1=O (centres unmarked) [Compound I-36, 5-[4-(cyclohex-2-en-1-yloxy)phenyl]-5-[(3-methyl-2-oxopyridin-1(2H)-yl)methyl]imidazolidine-2,4-dione] | 58
12 | < 100 | Cc1cccn(CC2(c3ccc(OC4CCCCC4)cc3)NC(=O)NC2=O)c1=O (centres unmarked) [Compound I-37, 5-[4-(cyclohexyloxy)phenyl]-5-[(3-methyl-2-oxopyridin-1(2H)-yl)methyl]imidazolidine-2,4-dione] | 78
13 | < 100 | Cc1cc(C2(Cn3cccc(C)c3=O)NC(=O)NC2=O)ccc1OC1C=CCCC1 (centres unmarked) [Compound I-38] | 41
14 | < 100 | Cc1cccn(CC2(c3ccc(Oc4cccc(F)c4)cc3)NC(=O)NC2=O)c1=O (centres unmarked) [Compound I-84] | 53
15 | < 100 | Cc1cccn(CC2(c3ccc(Oc4ccc(F)cc4)cc3)NC(=O)NC2=O)c1=O (centres unmarked) [Compound I-85] | 78
16 | < 100 | Cc1cccn(CC2(c3ccc(Sc4ccccc4)cc3)NC(=O)NC2=O)c1=O (centres unmarked) [Compound I-102] | 50
17 | < 100 | Cc1cc(C2(Cn3cccc(C)c3=O)NC(=O)NC2=O)cc(C)c1OC1CCCC1 (centres unmarked) [Compound I-129] | 71
18 | < 100 | COc1ccc(C2(Cn3cccc(C(F)(F)F)c3=O)NC(=O)NC2=O)cc1 (centres unmarked) [Compound I-141] | –
19 | < 100 | N#Cc1ccc(C2(Cn3cccc(C(F)(F)F)c3=O)NC(=O)NC2=O)cc1 (centres unmarked) [Compound I-142] | –
20 | < 100 | O=C1NC(=O)C(Cn2cccc(F)c2=O)(c2ccc(F)c(F)c2)N1 (centres unmarked) [Compound I-145] | –
21 | < 100 | O=C1NC(=O)C(Cn2cccc(Cl)c2=O)(c2ccc(F)c(F)c2)N1 (centres unmarked) [Compound I-146] | –
22 | < 100 | O=C1NC(=O)C(Cn2cccc(Br)c2=O)(c2ccc(F)c(F)c2)N1 (centres unmarked) [Compound I-147] | –
23 | < 100 | O=C1NC(=O)C(Cn2cccc(Br)c2=O)(c2ccc(Cc3ccccc3)cc2)N1 (centres unmarked) [Compound I-149] | –
24 | < 100 | O=C1NC(=O)C(Cn2cccc(Cl)c2=O)(c2ccc(Cc3ccccc3)cc2)N1 (centres unmarked) [Compound I-150] | –
25 | < 100 | O=C1NC(=O)C(Cn2cccc(F)c2=O)(c2ccc(Cc3ccccc3)cc2)N1 (centres unmarked) [Compound I-152] | –
